Source: US20230121608A1, “Compositions and Methods for the Prevention of Stress-Induced Fear, Depressive-Like and Anxiety- Like Behavior” (The Trustees of Columbia University in the City of New York, priority 2020, published 2023)
Entries after “also recorded” stand apart in the source; their conditions may differ. Structures can show the parent of a compound that is named as a salt. Where two headings read alike, the source gives them in different places.

Columns and labels:
C57BL/6 mice [1] = assay: Novelty suppressed feeding (NSF); assay type: in vivo, mouse; conditions: female C57BL/6 mice; one week before CFC stress; (R,S)-ketamine 10 mg/kg, combined 10 + 1.5 mg/kg
Text: All food was removed from the home cage.

129S6/SvEv mice [2] = assay: Contextual fear conditioning (CFC), 3-shock paradigm, freezing; assay type: in vivo, mouse; conditions: male 129S6/SvEv mice, 1 week prior to CFC stress, (R,S)-ketamine 30 mg/kg, prucalopride 3 mg/kg, combined 10 + 3 mg/kg
Experimental: (§1) Male and female 129S6/SvEvTac mice were purchased from Taconic (Hudson, NY) at 7 weeks of age. Female C57BL/6NTac mice were purchased from Taconic (Hudson, NY) at 7 weeks of age. Mice were housed 5 per cage in a 12-h (06:00-18:00) light-dark colony room at 22° C. All experiments were approved by the Institutional Animal Care and Use Committee (IACUC) at the New York Psychiatric Institute (NYSPI).
(§2) A 3-shock CFC paradigm was administered as previously described (Denny et al., 2014; Drew et al., 2010). Fear conditioning was conducted in chambers obtained from Coulborn Instruments (Allentown, PA) with internal dimensions of approximately 20 cm wide × 16 cm deep × 20.5 cm high. The chambers had metal walls on each side, clear plastic front and back walls and ceilings, and stainless-steel bars on the floor. A house light (CM1820 bulb, 28 V, 100 mA) mounted directly above the chamber provided illumination. Each chamber was located inside a larger, insulated, plastic cabinet that provided protection from outside light and noise. Each cabinet contained a ventilation fan that was operated during the sessions. A paper towel dabbed with lemon solution was placed underneath the chamber floor. […] All sessions were scored for freezing using FreezeFrame4 (Actimetrics, Wilmette, IL).

[3] = test system: AMPA receptor-mediated synaptic transmission in CA3; conditions: recordings following drug administration; recent study (Chen et al., 2020); cited from earlier work
mice = conditions: cited from earlier work
C57BL/6 mice [4] = assay: Contextual fear conditioning (CFC), freezing; assay type: in vivo, mouse; conditions: female C57BL/6 mice; one week before CFC stress; (R,S)-ketamine 10 mg/kg, combined 10 + 1.5 mg/kg
Experimental: as §1, §2

129S6/SvEv mice [5] = assay: Forced swim test (FST), immobility time; assay type: in vivo, mouse
Experimental: The FST is typically used in rodents to screen for potential human antidepressants. […] In the FST, time spent immobile, as opposed to swimming, is used as a measure of depressive behavior.
The FST was administered as previously described (Brachman et al., 2016). Briefly, mice were placed into clear plastic buckets 20 cm in diameter and 23 cm deep filled ⅔ of the way with 22° C. water. Mice were videotaped from the side for 6 minutes and were exposed to the swim test on 2 consecutive days. Immobility time was scored by an experimenter blind to the experimental groups.

129S6/SvEv mice [6] = conditions: non-stressed female 129S6/SvEv mice; one hour prior to the OF; (R,S)-ketamine 10 mg/kg, prucalopride 1.5 mg/kg, combined 10 + 1.5 mg/kg
Experimental: (§3) A single injection of saline (0.9% NaCl), or (R,S)-ketamine (Fort Dodge Animal Health, Fort Dodge, IA) (10 mg/kg or 30 mg/kg), and/or prucalopride (SML1371, Sigma-Aldrich, St. Lois, MO) (1.5 mg/kg or 3 mg/kg), was administered once during the course of each experiment at approximately 6-8 months of age. All drugs were prepared in physiological saline and administered intraperitoneally (i.p.) in volumes of 0.1 cc per 10 mg body weight.
The MB assay was conducted in a clean cage (10.5 in × 5.5 in) containing soft pliable Beta Chip bedding (Northeastern Products Corp, Warrensburg, NY). The cage contained 16 marbles set up in 4 rows of 4 across. Mice were given 30 minutes to explore and bury. At the end of the assay, the percentage of marbles buried was calculated.

[7] = target: hERG (human Ether-a-go-go Related Gene) channels (Homo sapiens, UniProt Q12809); conditions: cited from earlier work
129S6/SvEv mice [8] = assay: Open field (OF); assay type: in vivo, mouse; conditions: non-stressed female 129S6/SvEv mice; one hour prior to the OF; (R,S)-ketamine 10 mg/kg, prucalopride 1.5 mg/kg, combined 10 + 1.5 mg/kg
Experimental: The OF assay was administered as previously described (David et al., 2009). Briefly, motor activity was quantified in four Plexiglas open field boxes 43 ×43 cm^2 (MED Associates, St. Albans, VT). Two sets of 16 pulse-modulated infrared photobeams on opposite walls 2.5-cm apart recorded x-y ambulatory movements. Activity chambers were computer interfaced for data sampling at 100-ms resolution. The computer defined grid lines that dividing center and surround regions, with the center square consisting of four lines 11 cm from the wall.

129S6/SvEv mice [9] = conditions: female 129S6/SvEv mice; 1 week prior to CFC stress; prucalopride 3 mg/kg
Experimental: as §3
Briefly, the maze is a plus-cross-shaped apparatus consisting of four arms, two open and two enclosed by walls, linked by a central platform at a height of 50 cm from the floor. Mice were individually placed in the center of the maze facing an open arm and were allowed to explore the maze for 5 minutes. The time spent in and the number of entries into the open arms was used as an anxiety index. Videos were scored using ANY-maze behavior tracking software (Stoelting, Wood Dale, IL).

[10] = male mice, given prior to a stressor, previous work
[11] = female 129S6/SvEv mice, 1 week prior to CFC stress, (R,S)-ketamine 10 mg/kg, prucalopride 1.5 mg/kg, combined 10 + 1.5 mg/kg
[12] = female mice, previous work, HCl
[13] = male mice, given prior to a stressor, previous work, monohydrochloride
[14] = female 129S6/SvEv mice, 1 week prior to CFC stress, (R,S)-ketamine 10 mg/kg, prucalopride 1.5 mg/kg, combined 10 + 1.5 mg/kg, monohydrochloride
[15] = female 129S6/SvEv mice, 1 week prior to CFC stress, prucalopride 3 mg/kg

Chain of hERG (human Ether-a-go-go Related Gene) channels (Q12809 whole entry): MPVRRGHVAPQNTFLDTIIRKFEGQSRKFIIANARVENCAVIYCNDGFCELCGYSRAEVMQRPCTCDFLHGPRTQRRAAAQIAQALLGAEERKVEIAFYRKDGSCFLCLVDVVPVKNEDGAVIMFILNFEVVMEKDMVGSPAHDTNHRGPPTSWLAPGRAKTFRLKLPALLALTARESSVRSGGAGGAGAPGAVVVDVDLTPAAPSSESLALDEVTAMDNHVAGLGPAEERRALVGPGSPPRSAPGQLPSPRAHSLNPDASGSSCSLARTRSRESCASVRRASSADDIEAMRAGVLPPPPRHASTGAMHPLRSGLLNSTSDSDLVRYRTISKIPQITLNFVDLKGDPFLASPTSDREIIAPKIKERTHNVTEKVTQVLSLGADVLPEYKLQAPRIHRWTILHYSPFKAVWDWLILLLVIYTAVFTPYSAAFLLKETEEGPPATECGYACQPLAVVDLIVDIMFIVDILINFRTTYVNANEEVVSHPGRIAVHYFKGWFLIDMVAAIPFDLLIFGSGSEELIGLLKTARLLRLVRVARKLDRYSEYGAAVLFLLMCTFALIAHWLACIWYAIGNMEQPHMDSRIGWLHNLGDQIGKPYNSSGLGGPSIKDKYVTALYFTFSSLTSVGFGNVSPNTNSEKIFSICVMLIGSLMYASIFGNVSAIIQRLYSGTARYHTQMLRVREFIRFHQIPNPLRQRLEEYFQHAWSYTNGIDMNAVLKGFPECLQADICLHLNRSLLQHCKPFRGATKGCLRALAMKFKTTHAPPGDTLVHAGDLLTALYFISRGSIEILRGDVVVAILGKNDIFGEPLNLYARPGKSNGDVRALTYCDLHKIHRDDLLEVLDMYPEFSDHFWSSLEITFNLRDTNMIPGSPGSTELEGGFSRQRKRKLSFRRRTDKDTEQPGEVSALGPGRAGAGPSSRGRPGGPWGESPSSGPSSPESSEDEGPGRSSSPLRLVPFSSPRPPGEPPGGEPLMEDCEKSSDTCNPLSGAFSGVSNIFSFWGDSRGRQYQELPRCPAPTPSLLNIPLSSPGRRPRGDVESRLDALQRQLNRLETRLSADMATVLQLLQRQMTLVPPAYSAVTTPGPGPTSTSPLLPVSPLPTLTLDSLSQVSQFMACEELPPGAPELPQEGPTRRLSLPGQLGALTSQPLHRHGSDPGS

## CNC1(c2ccccc2Cl)CCCCC1=O (racemic) [(R,S)-ketamine, (RS)-2-(2-chlorophenyl)-2-(methylamino)cyclohexanone]
C57BL/6 mice [1]
  Latency to feed in the OF (hyponeophagia), NSF: suppressed hyponeophagia
129S6/SvEv mice [2]
  Average freezing upon CFC re-exposure (fear) vs saline: effective at decreasing fear; also recorded: reduced freezing
[3]
  AMPA receptor-mediated synaptic transmission in CA3: alter AMPA receptor-mediated synaptic transmission in CA3
mice; [10]
  Learned fear: attenuate learned fear
  Stress-induced anxiety-like behavior: does not prevent anxiety-like behavior
  Stress-related depressive-like behavior: prevent stress-related depressive-like behavior
mice; prior work, male mice
  Hyponeophagia in the NSF paradigm: not effective at reducing hyponeophagia
C57BL/6 mice [4]
  Freezing during CFC re-exposure vs saline: significantly increased
129S6/SvEv mice [5]; [11]
  Immobility time on day 1 of the FST vs saline: significantly reduced immobility time
  Immobility time on day 2 of the FST vs saline: significantly reduced immobility time
129S6/SvEv mice [5]; female 129S6/SvEv mice, 5 minutes after CFC stress, (R,S)-ketamine 10 mg/kg, prucalopride 1.5 mg/kg, combined 10 + 1.5 mg/kg
  Immobility time (behavioral despair), FST day 2, vs saline: significantly reduced behavioral despair
129S6/SvEv mice [5]; male 129S6/SvEv mice, 1 week prior to CFC stress, (R,S)-ketamine 30 mg/kg, prucalopride 3 mg/kg, combined 10 + 3 mg/kg
  Immobility time on day 2 of the FST vs saline: decreased immobility time
129S6/SvEv mice [5]; male 129S6/SvEv mice, 5 minutes after CFC stress, (R,S)-ketamine 30 mg/kg, prucalopride 3 mg/kg, combined 10 + 3 mg/kg
  Immobility (behavioral despair), FST day 2, vs saline: significantly reduced behavioral despair

## OC1(CN2CCC(COc3noc4cccc(OC5CCOC5)c34)CC2)CCOCC1 (stereo not shown) [PF-04995274]
mice; [10]
  Learned fear: attenuate learned fear
  Stress-induced anxiety-like behavior: do not alter stress-induced anxiety-like behavior
  Stress-related depressive-like behavior: prevent depressive-like behavior

## CCCCN1CCC(CCC(=O)c2cc(Cl)c(N)cc2OC)CC1.Cl [RS-67,333, 1-(4-amino-5-chloro-2-methoxyphenyl)-3-[1(n-butyl)-4-piperidinyl]-1-propanone HCl]
mice; [12]
  Depressive-like behavior: not effective as a prophylactic; also recorded: does not attenuate learned fear or affect depressive-like behavior
  Learned fear: not effective as a prophylactic; also recorded: does not attenuate learned fear
mice; female mice, previous work
  Anxiety-like behavior: can protect against anxiety-like behavior
mice; [10]
  Learned fear: attenuates learned fear
  Stress-induced anxiety-like behavior: prevents anxiety-like behavior
  Stress-related depressive-like behavior: does not protect against depressive-like behavior
mice; prior work, female 129S6/SvEv mice, RS-67,333 10 mg/kg, HCl
  Hyponeophagia (NSF): effective as a prophylactic against hyponeophagia; also recorded: effective at reducing hyponeophagia

## COCCCN1CCC(NC(=O)c2cc(Cl)c(N)c3c2OCC3)CC1 [prucalopride, 4-amino-5-chloro-2,3-dihydro-N-[1-3-methoxypropyl)-4-piperidinyl]-7-benzofuran carboxamide monohydrochloride]
129S6/SvEv mice [6]
  Number of marbles buried, MB assay (perseverative behavior): significantly reduced
[7]
  Affinity for the hERG channels: no affinity
129S6/SvEv mice [2]; monohydrochloride
  Average freezing upon CFC re-exposure (fear) vs saline: effective at decreasing fear; also recorded: reduced freezing
[3]
  AMPA receptor-mediated synaptic transmission in CA3: alter AMPA receptor-mediated synaptic transmission in CA3
mice; [13]
  Learned fear: attenuate learned fear
  Stress-induced anxiety-like behavior: had no prophylactic effect; also recorded: do not alter stress-induced anxiety-like behavior
  Stress-related depressive-like behavior: decreased stress-induced depressive-like behavior; also recorded: prevent depressive-like behavior
mice; prior work, male mice
  Hyponeophagia in the NSF paradigm: not effective at reducing hyponeophagia
129S6/SvEv mice [8]
  Distance travelled in the OF vs saline: significantly increased
129S6/SvEv mice [9]
  Number of entries into the open arms of the EPM vs saline: increased
  Time in the open arms of the EPM vs saline: increased
129S6/SvEv mice [5]; [14]
  Immobility time on day 1 of the FST vs saline: significantly reduced immobility time
  Immobility time on day 2 of the FST vs saline: significantly reduced immobility time
129S6/SvEv mice [5]; [15]
  Immobility time on day 1 of the FST: reduced immobility time
  Immobility time on day 2 of the FST: reduced immobility time
129S6/SvEv mice [5]; male 129S6/SvEv mice, 1 week prior to CFC stress, (R,S)-ketamine 30 mg/kg, prucalopride 3 mg/kg, combined 10 + 3 mg/kg, monohydrochloride
  Immobility time on day 2 of the FST vs saline: decreased immobility time
129S6/SvEv mice [5]; male 129S6/SvEv mice, 1 week prior to CFC stress, prucalopride 1.5 mg/kg, monohydrochloride
  Immobility time on day 2 of the FST vs saline: decreased immobility time
